According to ChEMBL document CHEMBL2074457, “LST-2, a human liver-specific organic anion transporter, determines methotrexate sensitivity in gastrointestinal cancers” (Gastroenterology, 2001):

Columns and labels:
[1] = molecular target: T1, Solute carrier organic anion transporter family member 1B3 (Homo sapiens, UniProt Q9NPD5); assay: (§1) TP_TRANSPORTER: uptake in Xenopus laevis oocytes; type: functional, cell-based, Oocyte; settings: for Km: Xenopus laevis oocytes expressing SLCO1B3 (OATP1B3); for Activity: oocyte
T1 sequence (Q9NPD5 whole entry): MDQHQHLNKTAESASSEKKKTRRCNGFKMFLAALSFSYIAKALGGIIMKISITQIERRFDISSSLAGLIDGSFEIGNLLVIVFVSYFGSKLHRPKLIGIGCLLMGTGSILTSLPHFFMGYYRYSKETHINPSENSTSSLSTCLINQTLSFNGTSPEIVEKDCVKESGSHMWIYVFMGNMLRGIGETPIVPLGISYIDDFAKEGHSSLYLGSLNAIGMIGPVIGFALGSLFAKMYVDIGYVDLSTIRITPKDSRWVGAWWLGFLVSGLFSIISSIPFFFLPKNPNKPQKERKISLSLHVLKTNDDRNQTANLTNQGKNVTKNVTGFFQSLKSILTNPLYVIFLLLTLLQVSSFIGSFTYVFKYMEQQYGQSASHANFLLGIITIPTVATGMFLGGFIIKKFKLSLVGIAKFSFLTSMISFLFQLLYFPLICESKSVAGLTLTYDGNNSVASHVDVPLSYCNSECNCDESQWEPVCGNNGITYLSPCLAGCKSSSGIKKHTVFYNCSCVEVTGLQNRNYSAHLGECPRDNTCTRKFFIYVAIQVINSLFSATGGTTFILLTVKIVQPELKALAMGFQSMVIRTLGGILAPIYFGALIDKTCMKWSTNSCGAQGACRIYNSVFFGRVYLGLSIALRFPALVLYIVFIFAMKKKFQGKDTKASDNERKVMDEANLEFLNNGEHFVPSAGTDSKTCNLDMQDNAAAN

[2] = molecular target: T1, Solute carrier organic anion transporter family member 1B3; assay: TP_TRANSPORTER: inhibition of MTX uptake (MTX: 1 uM, BSP: 100 uM) in Xenopus laevis oocytes; type: functional, cell-based; settings: oocyte
[3] = molecular target: T2, Solute carrier organic anion transporter family member 1B1 (Homo sapiens, UniProt Q9Y6L6); assay: as §1; type: functional, cell-based; settings: oocyte
T2 sequence (Q9Y6L6 whole entry): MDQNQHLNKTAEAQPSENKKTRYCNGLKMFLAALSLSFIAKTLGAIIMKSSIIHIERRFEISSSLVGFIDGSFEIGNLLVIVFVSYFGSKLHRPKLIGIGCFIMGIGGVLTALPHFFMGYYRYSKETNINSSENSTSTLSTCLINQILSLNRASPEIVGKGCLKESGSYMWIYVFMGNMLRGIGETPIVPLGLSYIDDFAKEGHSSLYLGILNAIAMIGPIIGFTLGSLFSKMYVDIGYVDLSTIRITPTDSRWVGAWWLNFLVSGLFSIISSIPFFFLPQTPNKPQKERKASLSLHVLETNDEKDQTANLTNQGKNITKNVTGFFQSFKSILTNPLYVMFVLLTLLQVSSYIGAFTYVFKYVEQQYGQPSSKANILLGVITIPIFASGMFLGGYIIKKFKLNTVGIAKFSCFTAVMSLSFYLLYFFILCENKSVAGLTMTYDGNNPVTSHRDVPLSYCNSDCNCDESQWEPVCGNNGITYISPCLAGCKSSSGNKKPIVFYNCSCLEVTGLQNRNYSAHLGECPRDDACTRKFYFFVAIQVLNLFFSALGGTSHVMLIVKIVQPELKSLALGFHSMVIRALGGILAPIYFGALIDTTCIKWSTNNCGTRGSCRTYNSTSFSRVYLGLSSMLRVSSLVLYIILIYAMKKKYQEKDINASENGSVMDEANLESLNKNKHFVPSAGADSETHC

SMILES	Km [1]	Activity [1]	also measured
N[C@@H](Cc1cc(I)c(Oc2ccc(O)c(I)c2)c(I)c1)C(=O)O [LIOTHYRONINE]	6.4 µM	–	–
CC1(C)SSC(C)(C)[C@@H](NC(=O)[C@@H](N)Cc2ccc(O)cc2)C(=O)NCC(=O)N[C@@H](Cc2ccccc2)C(=O)N[C@H]1C(=O)O	–	is not a substrate [-]	–
O=C1OC(c2ccc(O)c(S(=O)(=O)[O-])c2)(c2ccc(O)c(S(=O)(=O)[O-])c2)c2c(Br)c(Br)c(Br)c(Br)c21.[Na+].[Na+] [SULFOBROMOPHTHALEIN SODIUM]	–	–	Activity [2]: inhibitor [+]
C[C@]12CC[C@H](OS(=O)(=O)O)CC1=CC[C@@H]1[C@@H]2CC[C@]2(C)C(=O)CC[C@@H]12 [PRASTERONE SULFURIC ACID]	–	substrate [+]	–
CN(Cc1cnc2nc(N)nc(N)c2n1)c1ccc(C(=O)N[C@@H](CCC(=O)O)C(=O)O)cc1 [METHOTREXATE]	24.7 µM	–	Activity [3]: substrate [+]
